Where “and” joins values, the source holds several entries; their conditions need not be identical. Equal values may be shown once. Inconclusive results and toxic doses are left out. Rule for the calls: active = survival T/C of 150% or more; inactive = T/C below 125% in these data.
Test system: P388 leukemia ip, CD2F1 mice, survival T/C
Assay: NCI In Vivo Anticancer Drug Screen. Data for tumor model P388 Leukemia (intraperitoneal) in CD2F1 (CDF1) mice
Details: endpoint: median survival time, higher = longer survival
Outline: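 Mice carrying the transplanted tumor received test compound or vehicle. Survival was recorded in each group, and the value is the treated-group measurement divided by that of the vehicle-treated control group.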

[1] = dose: 50.0 mg/kg/injection, schedule: Q01DX009 (ip), vehicle: Klucel (hydroxypropylcellulose) (HPC)
[2] = dose: 100.0 mg/kg/injection, schedule: Q01DX009 (ip), vehicle: Klucel (hydroxypropylcellulose) (HPC)
[3] = dose: 200.0 mg/kg/injection, schedule: Q01DX009 (ip), vehicle: Klucel (hydroxypropylcellulose) (HPC)
[4] = dose: 50.0 mg/kg/injection, schedule: Q01DX009 (ip), vehicle: saline with Tween-80
[5] = dose: 100.0 mg/kg/injection, schedule: Q01DX009 (ip), vehicle: saline with Tween-80
[6] = dose: 200.0 mg/kg/injection, schedule: Q01DX009 (ip), vehicle: saline with Tween-80

Measured: T/C

O=C1CC(c2ccccc2)C(c2ccccc2)C1=O (centres undefined)
inactive: dose: 12.5 mg/kg/injection, schedule: Q04DX003 (ip), vehicle: Klucel (hydroxypropylcellulose) (HPC) 107 % of control | dose: 25.0 mg/kg/injection, schedule: Q04DX003 (ip), vehicle: Klucel (hydroxypropylcellulose) (HPC) 102 % of control | dose: 50.0 mg/kg/injection, schedule: Q04DX003 (ip), vehicle: Klucel (hydroxypropylcellulose) (HPC) 102 % of control

O=C(NNC(=O)c1ccncc1)Nc1cccc(Cl)c1
inactive: [1] 95 % of control | [2] 96 % of control

O=S(=O)(c1ccc(F)cc1)C1C(c2ccccc2)=NNC1c1ccccc1Cl (centres undefined)
inactive: dose: 50.0 mg/kg/injection, schedule: Q01DX005 (ip), vehicle: saline with Tween-80 95 % of control | dose: 100.0 mg/kg/injection, schedule: Q01DX005 (ip), vehicle: saline with Tween-80 95 % of control | dose: 200.0 mg/kg/injection, schedule: Q01DX005 (ip), vehicle: saline with Tween-80 106 % of control

COc1ccc2[nH]c3c(c2c1)CNCC3
inactive: dose: 100.0 mg/kg/injection, schedule: Q01DX009 (ip), vehicle: saline 110 % of control | dose: 200.0 mg/kg/injection, schedule: Q01DX009 (ip), vehicle: saline 112 % of control

CC1NC(C(=O)O)Cc2c1[nH]c1ccccc21 (centres undefined)
inactive: dose: 25.0 mg/kg/injection, schedule: Q01DX009 (ip), vehicle: suspension in saline 105 % of control | dose: 50.0 mg/kg/injection, schedule: Q01DX009 (ip), vehicle: suspension in saline 105 % of control | dose: 50.0 mg/kg/injection, schedule: Q04DX003 (ip), vehicle: saline 100 % of control | dose: 100.0 mg/kg/injection, schedule: Q01DX009 (ip), vehicle: suspension in saline 102 % of control | dose: 100.0 mg/kg/injection, schedule: Q04DX003 (ip), vehicle: saline 100 % of control | dose: 200.0 mg/kg/injection, schedule: Q04DX003 (ip), vehicle: saline 102 % of control

CCCCOC(=O)C1C(C(=O)OCCCC)C2(Cl)C(Cl)=C(Cl)C1(Cl)C2(Cl)Cl (centres undefined)
inactive: [2] 97 % of control | [3] 104 % of control | dose: 400.0 mg/kg/injection, schedule: Q01DX009 (ip), vehicle: Klucel (hydroxypropylcellulose) (HPC) 111 % of control

CC(C)=NOc1ccccc1[N+](=O)[O-]
inactive: [4] 111 % of control | [5] 101 % of control | [6] 93 % of control

CN1C2=NCCN2S(=O)(=O)c2ccccc21
inactive: dose: 100.0 mg/kg/injection, schedule: Q01DX001 (ip), vehicle: saline with Tween-80 101 % of control | dose: 200.0 mg/kg/injection, schedule: Q01DX001 (ip), vehicle: saline with Tween-80 110 % of control | dose: 400.0 mg/kg/injection, schedule: Q01DX001 (ip), vehicle: saline with Tween-80 92 % of control

COc1cc(C2(C3C(CO)OC(=O)C3Cc3ccc4c(c3)OCO4)SCCCS2)cc(OC)c1OC (centres undefined)
inactive: dose: 25.0 mg/kg/injection, schedule: Q04DX002 (ip), vehicle: saline with Tween-80 100 % of control | dose: 50.0 mg/kg/injection, schedule: Q04DX002 (ip), vehicle: saline with Tween-80 87 % of control

COc1cc(Cc2n[nH]c(=S)n2-c2ccccc2)c(S(N)(=O)=O)cc1OC
inactive: dose: 60.0 mg/kg/injection, schedule: Q01DX005 (ip), vehicle: saline with Tween-80 102 % of control | dose: 120.0 mg/kg/injection, schedule: Q01DX005 (ip), vehicle: saline with Tween-80 95 % of control | dose: 240.0 mg/kg/injection, schedule: Q01DX005 (ip), vehicle: saline with Tween-80 94 % of control

CCN(CC)CCN=c1c(C)nc(C#N)c(N)n1O
inactive: dose: 10.0 mg/kg/injection, schedule: Q01DX009 (ip), vehicle: saline with Tween-80 100 % of control and 102 % of control and 105 % of control | dose: 20.0 mg/kg/injection, schedule: Q01DX009 (ip), vehicle: saline with Tween-80 100 % of control and 118 % of control and 96 % of control | dose: 40.0 mg/kg/injection, schedule: Q01DX009 (ip), vehicle: saline with Tween-80 98 % of control and 103 % of control | dose: 80.0 mg/kg/injection, schedule: Q01DX009 (ip), vehicle: saline with Tween-80 98 % of control and 106 % of control

COc1ccc(C(=O)CC(C#N)c2ccc(OC)c(OC)c2)cc1OC (centres undefined)
inactive: dose: 100.0 mg/kg/injection, schedule: Q04DX003 (ip), vehicle: saline with Tween-80 90 % of control | dose: 200.0 mg/kg/injection, schedule: Q04DX003 (ip), vehicle: saline with Tween-80 86 % of control | dose: 400.0 mg/kg/injection, schedule: Q04DX003 (ip), vehicle: saline with Tween-80 86 % of control

O=c1[nH]c2ccc(Cl)cc2c2ccccc12
inactive: [1] 101 % of control | [2] 100 % of control | [3] 105 % of control

O=Nc1[nH]c(NO)c2ccccc12
inactive: [4] 91 % of control | [5] 87 % of control | [6] 87 % of control | dose: 400.0 mg/kg/injection, schedule: Q01DX009 (ip), vehicle: saline with Tween-80 90 % of control
